Experimental data taken from patent US7989446B2, “4-amino 5-cyanopyrimidine derivatives” (Otsuka Pharmaceutical Co., Ltd., priority 2004, dated 2011).
Structures can show the parent of a compound that is named as a salt.

Legend:
[1] = tested on: Intraocular Pressure in Rabbit; experiment: Measuring test for intraocular pressure in rabbit; type: in vivo, Female New Zealand white rabbits; settings: mean±standard error
Experimental: (3) Measuring Test for Intraocular Pressure in Rabbit
The test compounds were dissolved in 10 mM of phosphate buffer (pH 7.5) (hereinafter, referred to as “vehicle of ophthalmic preparation”), and they were instilled in a given concentration. In addition, the compounds insoluble in that concentration was used as a suspension. Female New Zealand white rabbits (KITAYAMA LABES Co., Ltd.) whose weights were 2.0-4.0 kg were used.
The measurement of the intraocular pressure was carried out using Pneumatonometer (Model 30 Classic, Mentor company) without anesthesia. In addition, before the measurement of the intraocular pressure, the surface anesthesia with 0.4% oxybuprocaine hydrochloride (“Benoxil” 0.4% ophthalmic solution, Santen Pharmaceutical Co., Ltd.) was carried out.
The animals whose intraocular pressure was stable before instillation were selected, and these animals were divided to every 4 animal in each one group, 50 μL of eye drops including each the test compound was administered to one-sided eye and vehicle was administered to contralateral eye as the control eye. The measurement of intraocular pressure was carried out before instillation and after 0.5, 1, 2, 3, 4 and 6 hours from instillation. The effect on the intraocular pressure was shown as the difference from pre-instillation (ΔIOP, mmHg, mean±standard error). The following Tables 14 and 15 show the results of Control Compounds A and B used as 1% suspensions which are the same as in the pharmacological test (1).
The animals were pretreated as mentioned above, and among them animals whose intraocular pressure was stable before instillation were selected, and these animals were divided to every 5 to 8 animal in each one group. Every two group was used for each of the test compounds. The test compound was administered unilaterally to the eye of the test group rabbit and the intraocular pressure was measured. The vehicle was administered unilaterally to the eye of the control group rabbit and the intraocular pressure was measured. As mentioned above, the measurement of intraocular pressure was carried out before instillation and after 0.5, 1, 2, 3, 4 and 6 hours from instillation, and the effect on the intraocular pressure was shown as the difference from pre-instillation (ΔIOP, mmHg, mean±standard error).

[2] = target: T1, adenosine A2a receptor (Human) (Homo sapiens, UniProt P29274); experiment: c-AMP generating action in cell expressing adenosine A2a receptor; type: cell-based; settings: HEK293 cell expressing human A2a; 100% = c-AMP caused by 1 μM CGS-21680; read-out: A2a Agonistic Action (EC50)
T1 construct: host or cells: HEK293
T1 sequence (P29274 whole entry): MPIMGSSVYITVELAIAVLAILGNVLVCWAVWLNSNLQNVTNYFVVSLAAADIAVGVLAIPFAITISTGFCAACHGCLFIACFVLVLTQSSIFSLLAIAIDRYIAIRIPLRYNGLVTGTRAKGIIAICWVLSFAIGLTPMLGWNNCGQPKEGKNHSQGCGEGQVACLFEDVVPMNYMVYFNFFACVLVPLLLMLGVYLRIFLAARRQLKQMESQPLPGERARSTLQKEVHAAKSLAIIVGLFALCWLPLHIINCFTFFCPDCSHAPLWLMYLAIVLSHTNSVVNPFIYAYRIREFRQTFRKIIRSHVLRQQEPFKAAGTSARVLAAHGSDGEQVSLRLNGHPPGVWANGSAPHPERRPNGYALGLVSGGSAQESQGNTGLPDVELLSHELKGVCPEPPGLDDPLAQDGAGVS
Experimental: (1) c-AMP Generating Action in Cell Expressing Adenosine A2a Receptor
The test was carried out as mentioned below with reference to the method disclosed in the reference (Klotz k. N. et al., Naunyn-Schmiedeberg's Arch. Pharmacol., (1998) 357, 1-9; Shryock J. C. et al., Molecular Pharmacology, (1998) 53, 886-893).
As to the cell, HEK293 cell expressing adenosine A2a receptor (Human) (PerkinElmer Life Sciences, Code No. RBHA2AC) was used.
As to the culture medium, Dulbecco's modified Eagles medium (DMEM) including 10% FBS (Fetal bovine serum) and 1 mM of sodium pyruvate was used.
The cell was placed on 96 well plate (1×10^5/well), and cultured overnight. After removing off the supernatant, to each well, 0.1 ml of DMEM (without FBS) containing 20 mM HEPES, 0.1 mM of IBMX (3-isobutyl-1-methylxanthine) and 2 unit/mL adenosine deaminase was added, and they were incubated at 37° C. for 30 minutes. To each well, 0.1 ml of the culture medium including the DMSO solution of the test compound in an appropriate concentration was added and they were incubated for additional 30 minutes. After removing off the supernatant, the cytolytic solution was added to quench the reaction. The amount of c-AMP in each well was measured by using the c-AMP enzyme immunoassay (EIA) system (Amersham Biosciences, Code No. RPN225).
The same assay was repeated using CGS-21680 (2-p-carboxyethyl)phenethylamino-5′-N-ethylcarboxamidoadenosine hydrochloride, (Sigma, code C141) as reference compound. The amount of resultant c-AMP in the medium, caused by 1 μM of reference compound, was defined to be 100%. A concentration of assayed compound in the medium, producing 50% c-AMP amounts, was calculated to be EC50 value.

[3] = 0.03% ophthalmic solution, rabbit, instillation, 0.5 hr after instillation, difference from pre-instillation
[4] = 0.03% ophthalmic solution, rabbit, instillation, 1 hr after instillation, difference from pre-instillation
[5] = 0.03% ophthalmic solution, rabbit, instillation, 2 hr after instillation, difference from pre-instillation
[6] = 0.03% ophthalmic solution, rabbit, instillation, 3 hr after instillation, difference from pre-instillation
[7] = 0.03% ophthalmic solution, rabbit, instillation, 4 hr after instillation, difference from pre-instillation
[8] = 0.03% ophthalmic solution, rabbit, instillation, 6 hr after instillation, difference from pre-instillation

Structure (SMILES)	EC50 [2] [nM]	ΔIOP (mmHg) [1, 3] [mmHg]	ΔIOP (mmHg) [1, 4] [mmHg]	ΔIOP (mmHg) [1, 5] [mmHg]	ΔIOP (mmHg) [1, 6] [mmHg]	ΔIOP (mmHg) [1, 7] [mmHg]	ΔIOP (mmHg) [1, 8] [mmHg]	other results
CC(=O)Nc1ccc(-c2nc(SCc3cccc(CN4CCOCC4)n3)nc(N)c2C#N)cc1 [Example 14, N-{4-[6-amino-5-cyano-2-(6-morpholin-4-ylmethylpyridin-2-ylmethylsulfanyl)pyrimidin-4-yl]phenyl}acetamide]	39.6							ΔIOP (mmHg) ([1]; 0.3% suspended ophthalmic preparation, test group, 0.5 hr): −0.3 ± 1.2 mmHg; ΔIOP (mmHg) ([1]; 0.3% suspended ophthalmic preparation, test group, 1 hr): −3.9 ± 1.3 mmHg; ΔIOP (mmHg) ([1]; 0.3% suspended ophthalmic preparation, test group, 2 hr): −4.4 ± 1.0 mmHg; ΔIOP (mmHg) ([1]; 0.3% suspended ophthalmic preparation, test group, 3 hr): −4.8 ± 1.4 mmHg; ΔIOP (mmHg) ([1]; 0.3% suspended ophthalmic preparation, test group, 4 hr): −4.3 ± 1.0 mmHg; ΔIOP (mmHg) ([1]; 0.3% suspended ophthalmic preparation, test group, 6 hr): −1.0 ± 1.0 mmHg
CC(=O)Nc1ccc(-c2nc(SCc3cccc(CCC(=O)NCCN(C)C)n3)nc(N)c2C#N)cc1.Cl [Example 61, 3-{6-[4-(4-acetylaminophenyl)-6-amino-5-cyanopyrimidin-2-ylsulfanylmethyl]pyridin-2-yl}-N-(2-dimethylaminoethyl)-propionamide hydrochloride]	3.4	−0.5 ± 0.4	−4.2 ± 0.6	−4.5 ± 0.7	−4.8 ± 0.7	−4.4 ± 0.7	−1.2 ± 0.8	
CC(=O)Nc1ccc(-c2nc(SCc3cccc(CCC(=O)N(C)CC(C)N(C)C)n3)nc(N)c2C#N)cc1.Cl (centres unmarked) [Example 64, 3-{6-[4-(4-acetylaminophenyl)-6-amino-5-cyanopyrimidin-2-ylsulfanylmethyl]pyridin-2-yl}-N-(2-dimethylaminopropyl)-N-methylpropionamide hydrochloride]	4.3	−2.7 ± 0.7	−4.9 ± 0.5	−3.8 ± 0.8	−3.2 ± 0.9	−4.0 ± 0.7	−1.8 ± 0.4	
CC(=O)Nc1ccc(-c2nc(SCc3ccccn3)nc(N)c2C#N)cc1 [Example 1, N-{4-[6-amino-5-cyano-2-(pyridin-2-ylmethylsulfanyl)-pyrimidin-4-yl]phenyl}acetamide]	39.6							
C=CC(=O)Nc1ccc(-c2nc(SCc3cccc(C)n3)nc(N)c2C#N)cc1 [Example 10, N-{4-[6-amino-5-cyano-2-(6-methylpyridin-2-ylmethylsulfanyl)pyrimidin-4-yl]phenyl}acrylamide]	19.1							
CC(=O)Nc1ccc(-c2nc(SCc3cccc(C(=O)N4CCOCC4)n3)nc(N)c2C#N)cc1 [Example 26, N-(4-{6-amino-5-cyano-2-[6-(morpholin-4-carbonyl)pyridin-2-ylmethyl-sulfanyl]pyrimidin-4-yl}phenyl)acetamide hydrochloride salt]	30.7							
CC(=O)Nc1ccc(-c2nc(SCc3cccc(C(=O)N4CCN(C(=O)OC(C)(C)C)CC4)n3)nc(N)c2C#N)cc1 [Example 28, t-butyl 4-{6-[4-(4-acetylaminophenyl)-6-amino-5-cyanopyrimidin-2-ylsulfanyl-methyl]pyridine-2-carbonyl}piperazine-1-carboxylate]	8.2							
CCC(=O)Nc1ccc(-c2nc(SCc3cccc(C)n3)nc(N)c2C#N)cc1 [Example 9, N-{4-[6-amino-5-cyano-2-(6-methylpyridin-2-ylmethylsulfanyl)-pyrimidin-4-yl]phenyl}propionamide]	9							
CC(=O)Nc1ccc(-c2nc(SCc3cccc(CN4CCN(C(=O)CN5CCN(C)CC5)CC4)n3)nc(N)c2C#N)cc1 [Example 21, N-{4-[6-amino-5-cyano-2-(6-{4-[2-(4-methylpiperazin-1-yl)acetyl]piperazin-1-ylmethyl}pyridin-2-ylmethylsulfanyl)pyrimidin-4-yl]phenyl}acetamide hydrochloride]	10.6							

More lines, main results first:

EC50 [2] [nM]	Structure (SMILES)	ΔIOP (mmHg) [1, 3] [mmHg]	ΔIOP (mmHg) [1, 4] [mmHg]	ΔIOP (mmHg) [1, 5] [mmHg]	ΔIOP (mmHg) [1, 6] [mmHg]	ΔIOP (mmHg) [1, 7] [mmHg]	ΔIOP (mmHg) [1, 8] [mmHg]	other results
2.4	CC(=O)Nc1ccc(-c2nc(SCc3cccc(CCC(=O)N4CCCN(C)CC4)n3)nc(N)c2C#N)cc1.Cl [Example 80, N-[4-(6-amino-5-cyano-2-{6-[3-(4-methyl-[1,4]diazepan-1-yl)-3-oxopropyl]pyridin-2-ylmethyl-sulfanyl}pyrimidin-4-yl)phenyl]acetamide hydrochloride]	−0.9 ± 1.3	−5.0 ± 1.0	−5.9 ± 0.7	−4.9 ± 0.5	−5.0 ± 0.8	−1.8 ± 0.8	
6	CC(=O)Nc1ccc(-c2nc(SCc3cccc(CCC(=O)N4CCN(CCN5CCOCC5)CC4)n3)nc(N)c2C#N)cc1.Cl [Example 78, N-{4-[6-amino-5-cyano-2-(6-{3-[4-(2-morpholin-4-ylethyl)piperazin-1-yl]-3-oxopropyl}pyridin-2-ylmethylsulfanyl)pyrimidin-4-yl]phenyl}acetamide hydrochloride]	0.6 ± 0.5	−3.3 ± 0.4	−4.4 ± 0.6	−4.3 ± 0.9	−5.4 ± 0.7	−3.2 ± 0.9	
13.6	CCN1CCN(CC2CN(C(=O)CCc3cccc(CSc4nc(N)c(C#N)c(-c5ccc(NC(C)=O)cc5)n4)n3)CCO2)CC1.Cl (centres unmarked) [Example 72, N-{4-[6-amino-5-cyano-2-(6-{3-[2-(4-ethyl-piperazin-1-ylmethyl)morpholin-4-yl]-3-oxopropyl}pyridin-2-ylmethylsulfanyl)pyrimidin-4-yl]phenyl}acetamide hydrochloride]	−1.9 ± 0.6	−5.3 ± 0.6	−4.7 ± 0.6	−5.0 ± 0.7	−4.0 ± 1.0	−1.9 ± 0.9	
5.2	CCN(CC)CCNC(=O)CCc1cccc(CSc2nc(N)c(C#N)c(-c3ccc(NC(C)=O)cc3)n2)n1.Cl [Example 66, 3-{6-[4-(4-acetylaminophenyl)-6-amino-5-cyanopyrimidin-2-ylsulfanylmethyl]pyridin-2-yl}-N-(2-diethylaminoethyl)propionamide hydrochloride salt]	−1.3 ± 0.9	−4.0 ± 0.6	−5.5 ± 0.7	−5.0 ± 0.5	−3.7 ± 0.5	−1.8 ± 0.5	
8.8	CC(=O)Nc1ccc(-c2nc(SCc3cccc(CCC(=O)N4CCCCC4CO)n3)nc(N)c2C#N)cc1 (centres unmarked) [Example 70, N-[4-(6-amino-5-cyano-2-{6-[3-(2-hydroxymethylpiperidin-1-yl)-3-oxopropyl]pyridin-2-ylmethylsulfanyl}pyrimidin-4-yl)phenyl]acetamide hydrochloride]							
